Read-outs that look alike come from different tables or passages of the source.
Assays:
[1] = tested on: rats injected intrathecally with dynorphin A; assay: Dynorphin A-induced paralysis in rats, neurological score; format: in vivo, rat; conditions: n = 9, 5 μmoles DHL in DMSO intrathecally
Protocol: Rats were injected with […] of dynorphin A in combination with DMSO (vehicle only) or dynorphin A (Dny) with 5 μmoles of dihydrolipoate in DMSO. The DMSO (control) and the DMSO with dihydrolipoate (DHL/DMSO) were administered as 2 hour pretreatment before administration of the dynorphin A and as cotreatment with dynorphin A. All rats were flaccidly paralyzed 10 minutes following dynorphin a injections. All injections were administered intrathecally.

[2] = tested on: ischemia-reperfusion injury; conditions: rat; cited from earlier work
[3] = tested on: ischemia-reperfusion injury; conditions: gerbil; cited from earlier work
[4] = tested on: NMDA and malonic acid lesions of striatum; conditions: rats; cited from earlier work
[5] = man, cited from earlier work
[6] = 2 hrs, pretreatment and cotreatment with dynorphin A
[7] = 24 hrs, pretreatment and cotreatment with dynorphin A

| SMILES | Number of animals with neurological score 4 (normal) ([1]; 2 hrs, 2 hour pretreatment and cotreatment with 20 μmoles dynorphin A, 4 normal, 0 flaccid paralysis) | Number of animals with neurological score 0 (flaccid paralysis) [1, 6] | Number of animals with neurological score 1 [1, 6] | Number of animals with neurological score 2 [1, 6] | Number of animals with neurological score 3 [1, 6] | Number of animals with neurological score 1 [1, 7] | Number of animals with neurological score 3 [1, 7] | Number of animals with neurological score 4 (normal) [1, 7] | Neuroprotection against ischemia-reperfusion injury [2] | Neuroprotection against ischemia-reperfusion injury [3] | Effect against NMDA lesions of striatum [4] | Effect against malonic acid lesions of striatum [4] | Clinical safety / tolerability [5] | Clinical safety / tolerability ([5]; listed as αLA) |
| --- | --- | --- | --- | --- | --- | --- | --- | --- | --- | --- | --- | --- | --- | --- |
| O=C(O)CCCC[C@@H](S)CCS (racemic) [DHL, dihydrolipoic acid] | 2 | 1 | 1 | 2 | 3 | 2 | 3 | 4 |  |  |  |  |  |  |
| O=C(O)CCCCC1CCSS1 (stereo not drawn) [Alpha lipoic acid] |  |  |  |  |  |  |  |  | neuroprotective | neuroprotective | effective | effective | clinically safe | well tolerated |

Reference: US6432434B1, “Treatment of and/or prophylaxis against brain and spinal cord injury” (The United States of America as represented by the …, priority 1999, dated 2002)
